Entries after “also recorded” stand apart in the source; their conditions may differ.
Experiments:
Type in all cases: cell-based, human
[1] = test system: peptide-pulsed C1R-A33 cells; experiment: IFN-gamma ELISPOT assay of peptide-induced CTLs (HLA-A*3303); conditions: CTLs induced from HLA-A*3303-positive donors, peptide-pulsed C1R-A33 vs control
Description: (§1) Monocyte-derived dendritic cells (DCs) were used as the antigen-presenting cell to induce a cytotoxic T lymphocyte (CTL) response against peptides presented on human leukocyte antigens (HLAs). As described in the other sections, DCs were generated in vitro (Nakahara S et al., Cancer Res 2003, 63(14): 4112-8). Specifically, peripheral-blood mononuclear cells isolated from healthy volunteers (HLA-A*3303-positive) with the Ficoll-Paque plus solution (Pharmacia) were separated by attaching to plastic tissue culture dishes (Becton Dickinson) and concentrated as a monocyte fraction. The monocyte-concentrated population was cultured in the presence of 1000 IU/ml granulocyte macrophage colony-stimulating factor (R&D System) and 1000 IU/ml interleukin(IL)-4 (R&D System) in an AIM-V medium (Invitrogen) containing 2% heat-inactivated autologous serum (AS). After seven days of culturing, the cytokine-induced DCs were pulsed with 20 micro-g/ml each of the synthesized peptides in an AIM-V medium at 37 degrees C. for three hours in the presence of 3 micro-g/ml beta 2-microglobulin. The generated cells appeared to express on their cell surface DC-associated molecules such as CD80, CD83, CD86 and HLA class II (data not shown). Next, these peptide-pulsed DCs were inactivated by X-ray irradiation (20 Gy), and mixed in a 1:20 ratio with autologous CD8^+ T cells obtained by positive selection using the CD8 Positive Isolation Kit (Dynal). These culture products were seeded in a 48-well plate (Corning). Each well was made to contain 1.5×10^4 peptide-pulsed DCs, 3×10^5 CD8^+ T cells and 10 ng/ml IL-7 (R&D System) in 0.5 ml of the AIM-V/2% AS medium. Three days later, these culture products were added with a final concentration of 20 IU/ml IL-2 (CHIRON). On day 7 and day 14, T cells were further stimulated with peptide-pulsed autologous DCs. The DCs were prepared every time by the same method as above. On day 21, after the third peptide stimulation, CTLs were examined against the peptide-pulsed CIR-A33 cell by a human interferon (IFN)-gamma enzyme-linked immunospot (ELISPOT) assay (Tanaka H et al., Br J Cancer 2001, 84(1): 94-9; Umano Y et al., Br J Cancer 2001, 84(8): 1052-7; Uchida N et al., Clin Cancer Res 2004, 10(24): 8577-86; Suda T et al., Cancer Sci 2006, 97(5): 411-9; Watanabe T et al., Cancer Sci 2005, 96(8): 498-506).
(§2) Specifically, peptide-pulsed C1R-A33 (1×10^4 cells/well) was prepared as the stimulator cell. The induced CTLs, i.e., CTL lines and CTL clones, were used as the responder cell. The IFN-gamma ELISPOT assay and IFN-gamma ELISA were performed according to the manufacturer's manual.

[2] = test system: peptide-pulsed C1R-A11; experiment: IFN-gamma ELISA of CTL lines and CTL clones (HLA-A*1101); conditions: for IFN-gamma production of CTL lines: peptide-pulsed vs non-pulsed target cells, HLA-A*1101
Protocol: (§3) CTLs were propagated in culture using methods similar to those disclosed by Riddell et al. (Walter E A et al., N Engl J Med 1995, 333(16): 1038-44; Riddell S R et al., Nat Med 1996, 2(2): 216-23). The CTLs were co-cultured in a total of 25 ml AIM-V medium containing 5% AS (AIM-V/5% AS) and 40 ng/ml anti-CD3 antibody with two types of Mitomycin C-treated human B lymphoblastoid cell lines at 5×10^6 cells/flask. One day after beginning of the culturing, 120 IU/ml IL-2 was added to the culture. On days 5, 8 and 11, a fresh AIM-V/5% AS medium containing 30 IU/ml IL-2 was added to the culture (Tanaka H et al., Br J Cancer 2001, 84(1): 94-9; Umano Y et al., Br J Cancer 2001, 84(8): 1052-7; Uchida N et al., Clin Cancer Res 2004, 10(24): 8577-86; Suda T et al., Cancer Sci 2006, 97(5): 411-9; Watanabe T et al., Cancer Sci 2005, 96(8): 498-506).
(§4) Dilution of CTLs was carried out to make 0.3, 1 and 3 cells/well in 96 round-bottomed microtiter plates (Nalge Nunc International). The CTLs were co-cultured with two types of Mitomycin C-treated human B lymphoblastoid cell lines at 1×10^4 cells/well in a total of 150 micro-l/well AIM-V/5% AS medium with 30 ng/ml anti-CD3 antibody and 125 IU/ml IL-2. Ten days later, IL-2 was added to the medium at 50 micro-l/well to reach a final concentration of 125 IU/ml. On day 14, the CTL activity was tested, and the CTL clones were propagated using the same method as described above (Uchida N et al., Clin Cancer Res 2004, 10(24): 8577-86; Suda T et al., Cancer Sci 2006, 97(5): 411-9; Watanabe T et al., Cancer Sci 2005, 96(8): 498-506).
(§5) Specifically, peptide-pulsed C1R-A11 (1×10^4 cells/well) was prepared as the stimulator cell. The induced CTLs, i.e., CTL lines and CTL clones, were used as the responder cell. The IFN-gamma ELISPOT assay and IFN-gamma ELISA were performed according to the manufacturer's manual.

[3] = test system: peptide-pulsed C1R-A11 cells; experiment: IFN-gamma ELISPOT assay of peptide-induced CTLs (HLA-A*1101); conditions: CTLs induced from HLA-A*1101-positive donors, peptide-pulsed C1R-A11 vs control
Description: as §1, with “(HLA-A*1101-positive)” for “(HLA-A*3303-positive)”, “C1R-A11 cells” for “CIR-A33 cell”
as §5

[4] = test system: peptide-pulsed C1R-A33; experiment: IFN-gamma ELISA of CTL lines and CTL clones (HLA-A*3303); conditions: for IFN-gamma production of CTL lines: peptide-pulsed vs non-pulsed target cells, HLA-A*3303
Protocol: as §3, §4, §2

## SGIINFIHFR (a peptide derived from CDCA1) [SEQ ID NO: 68]
[1]; listed as CDCA1-A33-10-122
  peptide-specific CTL activity (IFN-gamma production): no specific IFN-gamma production; also recorded: specific IFN-gamma production was not observed

## ETADILCPK (a peptide derived from CDCA1) [SEQ ID NO: 5]
[1]
  peptide-specific CTL activity (IFN-gamma production): potent IFN-gamma production
[2]; CTL clones by limiting dilution, peptide-pulsed C1R-A11, listed as CDCA1-A11-9-105
  IFN-gamma production of CTL clones: Potent IFN-gamma production
[2]
  IFN-gamma production of CTL lines: potent IFN-gamma production
[3]; listed as CDCA1-A11-9-105
  peptide-specific CTL activity (IFN-gamma production): potent IFN-gamma production; also recorded: significant specific CTL activity

## NVAEIVIHIR (a peptide derived from CDCA1) [SEQ ID NO: 67]
[1]
  peptide-specific CTL activity (IFN-gamma production): potent IFN-gamma production
[4]
  IFN-gamma production of CTL lines: potent IFN-gamma production

## DTVQKLKNAR (a peptide derived from CDCA1) [SEQ ID NO: 69]
[1]
  peptide-specific CTL activity (IFN-gamma production): potent IFN-gamma production
[4]
  IFN-gamma production of CTL lines: potent IFN-gamma production

## DILCPKAKR (a peptide derived from CDCA1) [SEQ ID NO: 60]
[1]
  peptide-specific CTL activity (IFN-gamma production): potent IFN-gamma production

## GIINFIHFR (a peptide derived from CDCA1) [SEQ ID NO: 3]
[1]
  peptide-specific CTL activity (IFN-gamma production): potent IFN-gamma production
[4]; CTL clones by limiting dilution, peptide-pulsed C1R-A33, listed as CDCA1-A33-9-123
  IFN-gamma production of CTL clones: Potent IFN-gamma production
[4]
  IFN-gamma production of CTL lines: potent IFN-gamma production
[2]
  IFN-gamma production of CTL lines: potent IFN-gamma production
[3]; listed as CDCA1-A11-9-123
  peptide-specific CTL activity (IFN-gamma production): potent IFN-gamma production; also recorded: significant specific CTL activity

## TVQKLKNAR (a peptide derived from CDCA1) [SEQ ID NO: 28]
[1]
  peptide-specific CTL activity (IFN-gamma production): potent IFN-gamma production

## AAHQEALMK (a peptide derived from CDCA1) [SEQ ID NO: 13]
[2]
  IFN-gamma production of CTL lines: potent IFN-gamma production
[3]; listed as CDCA1-A1-9-157
  peptide-specific CTL activity (IFN-gamma production): potent IFN-gamma production
[3]; listed as CDCA1-A11-9-157
  peptide-specific CTL activity (IFN-gamma production): potent IFN-gamma production; also recorded: significant specific CTL activity

Reference: US10676514B2, “CDCA1-derived peptide and vaccine containing same” (ONCOTHERAPY SCIENCE, INC., priority 2014, dated 2020)
